According to patent EP1095025B1, “BENZIMIDAZOLES, PRODUCTION THEREOF AND USE THEREOF AS MEDICAMENTS” (Boehringer Ingelheim Pharma KG, priority 1998, dated 2000):
Structures can show the parent of a compound that is named as a salt.

Test system: humanem Citrat-Plasma
Test: aPTT time prolongation in plasma (Biomatic B10 coagulometer)
Format: biochemical
Settings: effective substance concentration, from a dose-response curve, at which the aPTT time is doubled versus control; human citrate plasma, 37°C

SMILES	aPTT-Zeit (ED200 in µM) [µM]
CN(CC(C)(C(=O)N1CCCC1)c1ccc2c(c1)nc(CNc1ccc(C(=N)N)cc1)n2C)C(=O)CC(=O)O (stereo not shown) [G, 2-(4-Amidinophenylaminomethyl)-1-methyl-5-[1-(N-methylcarboxymethylcarbonylaminomethyl)-1-methyl-1-(pyrrolidin-1-yl-carbonyl)-ethyl]-benzimidazol-dihydrochlorid]	0.17
Cl.Cn1c(CNc2ccc(C(=N)N)cc2)nc2cc(C(C)(NCC(=O)O)C(=O)N3CCCC3)ccc21 (stereo not shown) [F, 2-(4-Amidinophenylaminomethyl)-1-methyl-5-[1-(carboxymethylamino)-1-(pyrrolidin-1-yl-carbonyl)-ethyl]-benzimidazol-hydrochlorid]	0.20
Cl.Cn1c(CNc2ccc(C(=N)N)cc2)nc2cc(C3(C(=O)N4CCCC4CCC(=O)O)CC3)ccc21 (stereo not shown) [D, 2-(4-Amidinophenylaminomethyl)-1-methyl-5-[1-[2-(2-carboxyethyl)-pyrrolidin-1-yl-carbonyl]cyclopropyl]-benzimidazol-hydrochlorid]	0.29
Cn1c(CNc2ccc(C(=N)N)cc2)nc2cc(C3(C(=NOCC(=O)O)c4ccccn4)CC3)ccc21 (mixture of isomers) [B, (E/Z)-2-(4-Amidinophenylaminomethyl)-1-methyl-5-[1-[(pyridin-2-yl)-(carboxymethyloxyimino)methylen]cyclopropyl]-benzimidazol-hydrochlorid]	0.42
Cl.Cn1c(CNc2ccc(C(=N)N)cc2)nc2cc(C3(C(=O)N4CCCC4)CC3)ccc21 [A, 2-(4-Amidinophenylaminomethyl)-1-methyl-5-[1-(pyrrolidin-1-yl-carbonyl)cyclopropyl]-benzimidazol-hydrochlorid]	0.12
Cl.Cn1c(CNc2ccc(C(=N)N)cc2)nc2cc(C(C)(NCCC(=O)O)C(=O)N3CCCC3)ccc21 (stereo not shown) [C, 2-(4-Amidinophenylaminomethyl)-1-methyl-5-[1-(2-carboxyethylamino)-1-(pyrrolidin-1-yl-carbonyl)-ethyl]-benzimidazol-hydrochlorid]	0.31
Cc1nc(CCC(=O)O)n(Cc2ccc3c(c2)nc(CNc2ccc(C(=N)N)cc2)n3C)c1C.Cl [E, 2-(4-Amidinophenylaminomethyl)-1-methyl-5-[2-(2-carboxyethyl)-4,5-dimethyl-imidazol-1-yl-methyl]-benzimidazol-hydrochlorid]	0.29
